Results from paper PMC7297817, “Pharmacological Characterization of a Betaine/GABA Transporter 1 (BGT1) Inhibitor Displaying an Unusual Biphasic Inhibition Profile and Anti-seizure Effects” (Neurochemical Research, 2020).

How the values were obtained:
MOR = target: T1, MOR (Homo sapiens, UniProt P35372); assay: NIMH PDSP radioligand binding, MOR; details: radioligand [3H]DAMGO, n=4
T1 construct: purchased NIMH Psychoactive Drug Screening Program (PDSP)

M2 = target: T2, M2 (Homo sapiens, UniProt P08172); assay: NIMH PDSP radioligand binding, M2
T2 construct: purchased NIMH Psychoactive Drug Screening Program (PDSP)

DAT = target: T3, DAT (Homo sapiens, UniProt Q01959); assay: NIMH PDSP radioligand binding, DAT; details: radioligand [3H]WIN35428, n=4
T3 construct: purchased NIMH Psychoactive Drug Screening Program (PDSP)

mice = assay: Rotarod test of minimal motor impairment; assay type: in vivo, mouse
Method: (§1) The rotarod test was performed just prior to the three seizure tests.
(§2) Probit analysis was used to analyse the efficacy and tolerability results obtained from the dose–response studies and to calculate the median effective (ED50) dose, the median toxic dose (TD50), and the 95% confidence interval.

[1] = Rotarod test of minimal motor impairment; assay type: in vivo, mouse; details: mouse, in vivo, ip; CF-1 mice of the MES test; probit analysis
Method: as §1, §2

hBGT1 Y453A = target: T4, hBGT1 Y453A (Homo sapiens, UniProt P48065, Y453A); assay: [3H]GABA uptake at hBGT1 Y453A mutant in tsA201 cells; assay type: cell-based; details: data not shown
T4 construct: host or cells: tsA201 (transient)
Method: (§3) The HEK-293 and Flp-In CHO cell lines stably expressing mouse (m) and human (h) GATs, respectively, have been described previously and were cultured accordingly. The tsA201 cell line was used for transient expression while the MDCK II cell line express BGT1 endogenously. Both cell lines were cultured as described. tsA201 cells were transfected with DNA constructs (8 μg per 10 cm dish if not otherwise mentioned) using 40 μL PolyFect transfection reagent according to the manufacturer’s protocol (Qiagen, Venlo, Netherlands). The DNA constructs encoding hBGT1, hGAT1-3 [36], the mutated constructs hBGT1 Q299 and hGAT3 L314Q described previously, and hBGT Y453A were synthesized and sequence validated by Genscript (NJ, USA).
(§4) The [^3H]GABA competition uptake assay was performed as previously described. A minor change, however, was introduced for uptake in MDCK II cells, in which 100 nM [^3H]GABA was used for a 15 min incubation period at 37 °C instead of 30 nM [^3H]GABA and 3 min incubation. Studies related to the inhibition curves with GABA and BPDBA at hBGT1 were obtained both with and without the presence of 10 μM ATP during the [^3H]GABA uptake assay.
(§5) The [^3H]GABA uptake data was normalized to the percentage of total uptake in the individual experiments in the presence of the lowest compound concentration or no compound present. […]

mGAT3 = target: T5, mGAT3 (Mus musculus, UniProt P31650); assay: [3H]GABA uptake at mGAT3 stably expressed in HEK-293 cells; assay type: cell-based; details: N=3
T5 construct: expressed in transfected cells
Method: as §3, §4, §5

GABAA rat brain = assay: NIMH PDSP radioligand binding, GABAA rat brain; details: 10 μM; radioligand [3H]muscimol; n=4
Method: IC50 values in μM (Ki μM)^a. The targets in bold were inhibited by >35% at 10 μM.

5-HT1A = target: T6, 5-HT1A (Homo sapiens, UniProt P08908); assay: NIMH PDSP radioligand binding, 5-HT1A; details: radioligand [3H]8-OH-PDAT, n=4
T6 construct: purchased NIMH Psychoactive Drug Screening Program (PDSP)

AGS Frings mice = assay: Audiogenic induced seizure test; assay type: in vivo, mouse
Excerpt: Male audiogenic-susceptible (AGS) Frings mice were obtained from an in-house breeding facility at the University of Utah (Salt Lake City, UT, USA). Male CF-1 mice for the maximal electroshock (MES) test and the subcutaneous pentylenetetrazol (s.c.PTZ) seizure threshold test were purchased from Charles River (Kingston, WA, USA). All mice were housed in a temperature, humidity, and light (on at 6:00 AM) controlled facility at the University of Utah with access to ad libitum food and water except during testing. All procedures were carried out at the University of Utah in concordance with the National Institutes of Health Guidelines for the Care and Use of Laboratory Animals and under approval from the University of Utah’s Institutional Animal Care and Use Committee. The mice were euthanized in accordance with Public Health Service policies on the humane care of laboratory animals. […] The seizures were induced as previously described. In brief, Frings mice were placed in a Plexiglas cylinder (diameter 15 cm, height 18 cm) connected to an audio transducer and exposed to a sound stimulus of 110 decibel (11 kHz) for a duration of 20 s. […] Probit analysis was used to analyse the efficacy and tolerability results obtained from the dose–response studies and to calculate the median effective (ED50) dose, the median toxic dose (TD50), and the 95% confidence interval.

T5 sequence (P31650 whole entry): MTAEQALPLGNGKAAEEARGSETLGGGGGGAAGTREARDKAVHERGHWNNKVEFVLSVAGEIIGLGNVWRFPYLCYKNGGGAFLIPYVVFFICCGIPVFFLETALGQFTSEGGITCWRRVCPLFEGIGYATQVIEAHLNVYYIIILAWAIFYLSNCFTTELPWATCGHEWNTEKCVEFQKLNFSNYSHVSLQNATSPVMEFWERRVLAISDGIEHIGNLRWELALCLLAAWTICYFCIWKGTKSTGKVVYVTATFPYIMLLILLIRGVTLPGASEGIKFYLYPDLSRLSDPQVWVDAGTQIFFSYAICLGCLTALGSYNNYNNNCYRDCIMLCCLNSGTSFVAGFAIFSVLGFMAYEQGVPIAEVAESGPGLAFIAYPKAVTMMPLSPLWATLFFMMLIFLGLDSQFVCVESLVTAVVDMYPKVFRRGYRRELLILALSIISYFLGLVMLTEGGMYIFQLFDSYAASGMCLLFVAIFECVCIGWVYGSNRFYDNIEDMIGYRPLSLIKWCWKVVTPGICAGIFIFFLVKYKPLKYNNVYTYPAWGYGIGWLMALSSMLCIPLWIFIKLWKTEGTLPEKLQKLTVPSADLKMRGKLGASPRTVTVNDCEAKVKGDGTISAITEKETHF
T2 sequence (P08172 whole entry): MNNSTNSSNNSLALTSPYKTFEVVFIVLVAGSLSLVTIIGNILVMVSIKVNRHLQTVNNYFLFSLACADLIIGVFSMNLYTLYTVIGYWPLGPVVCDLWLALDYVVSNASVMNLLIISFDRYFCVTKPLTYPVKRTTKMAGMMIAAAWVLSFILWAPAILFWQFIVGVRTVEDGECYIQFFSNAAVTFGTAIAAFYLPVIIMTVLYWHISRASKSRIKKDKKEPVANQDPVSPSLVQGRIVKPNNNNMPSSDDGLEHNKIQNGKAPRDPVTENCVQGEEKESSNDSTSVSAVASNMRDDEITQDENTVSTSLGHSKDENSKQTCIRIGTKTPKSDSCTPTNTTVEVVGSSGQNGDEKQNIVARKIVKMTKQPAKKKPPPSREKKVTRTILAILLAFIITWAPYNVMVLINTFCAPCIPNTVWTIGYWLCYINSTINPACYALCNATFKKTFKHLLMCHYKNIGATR
T6 sequence (P08908 whole entry): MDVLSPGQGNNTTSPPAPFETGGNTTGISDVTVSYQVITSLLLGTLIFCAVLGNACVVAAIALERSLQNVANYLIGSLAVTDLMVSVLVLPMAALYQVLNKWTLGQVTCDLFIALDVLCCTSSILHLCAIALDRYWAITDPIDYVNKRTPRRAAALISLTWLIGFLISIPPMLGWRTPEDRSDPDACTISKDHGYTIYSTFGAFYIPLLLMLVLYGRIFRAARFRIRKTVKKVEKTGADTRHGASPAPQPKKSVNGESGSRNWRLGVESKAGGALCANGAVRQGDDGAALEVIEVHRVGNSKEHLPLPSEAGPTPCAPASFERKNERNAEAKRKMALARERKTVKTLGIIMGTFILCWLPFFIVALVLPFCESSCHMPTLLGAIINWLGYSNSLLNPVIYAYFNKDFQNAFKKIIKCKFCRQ
T1 sequence (P35372 whole entry): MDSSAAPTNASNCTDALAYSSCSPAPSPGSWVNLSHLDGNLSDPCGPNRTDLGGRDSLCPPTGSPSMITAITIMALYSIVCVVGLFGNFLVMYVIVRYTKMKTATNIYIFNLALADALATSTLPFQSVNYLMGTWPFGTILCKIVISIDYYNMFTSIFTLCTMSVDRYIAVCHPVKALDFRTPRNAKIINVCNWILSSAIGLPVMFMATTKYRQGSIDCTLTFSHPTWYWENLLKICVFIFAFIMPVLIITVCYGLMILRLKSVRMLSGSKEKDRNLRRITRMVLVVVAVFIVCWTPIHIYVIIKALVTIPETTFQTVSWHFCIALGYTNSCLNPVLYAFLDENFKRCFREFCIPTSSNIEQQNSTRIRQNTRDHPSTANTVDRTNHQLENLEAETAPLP
T3 sequence (Q01959 whole entry): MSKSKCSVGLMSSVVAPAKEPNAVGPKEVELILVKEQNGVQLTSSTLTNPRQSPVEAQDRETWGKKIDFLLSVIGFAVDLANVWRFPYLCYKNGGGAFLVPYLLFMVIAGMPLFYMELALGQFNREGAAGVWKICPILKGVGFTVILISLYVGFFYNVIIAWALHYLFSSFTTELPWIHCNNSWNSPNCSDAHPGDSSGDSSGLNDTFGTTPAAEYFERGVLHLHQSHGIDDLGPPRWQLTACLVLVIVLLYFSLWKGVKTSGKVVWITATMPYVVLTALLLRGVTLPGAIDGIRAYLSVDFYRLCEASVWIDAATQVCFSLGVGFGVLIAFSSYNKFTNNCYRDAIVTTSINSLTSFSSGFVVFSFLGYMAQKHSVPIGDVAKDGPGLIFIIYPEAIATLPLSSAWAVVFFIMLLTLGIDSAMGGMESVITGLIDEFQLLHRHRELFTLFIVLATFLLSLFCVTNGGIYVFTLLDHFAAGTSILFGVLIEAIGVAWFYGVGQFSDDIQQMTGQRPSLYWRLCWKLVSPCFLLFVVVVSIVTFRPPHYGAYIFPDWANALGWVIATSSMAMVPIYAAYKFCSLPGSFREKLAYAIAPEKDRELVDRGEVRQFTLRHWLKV
T4 sequence (P48065 whole entry Y453A): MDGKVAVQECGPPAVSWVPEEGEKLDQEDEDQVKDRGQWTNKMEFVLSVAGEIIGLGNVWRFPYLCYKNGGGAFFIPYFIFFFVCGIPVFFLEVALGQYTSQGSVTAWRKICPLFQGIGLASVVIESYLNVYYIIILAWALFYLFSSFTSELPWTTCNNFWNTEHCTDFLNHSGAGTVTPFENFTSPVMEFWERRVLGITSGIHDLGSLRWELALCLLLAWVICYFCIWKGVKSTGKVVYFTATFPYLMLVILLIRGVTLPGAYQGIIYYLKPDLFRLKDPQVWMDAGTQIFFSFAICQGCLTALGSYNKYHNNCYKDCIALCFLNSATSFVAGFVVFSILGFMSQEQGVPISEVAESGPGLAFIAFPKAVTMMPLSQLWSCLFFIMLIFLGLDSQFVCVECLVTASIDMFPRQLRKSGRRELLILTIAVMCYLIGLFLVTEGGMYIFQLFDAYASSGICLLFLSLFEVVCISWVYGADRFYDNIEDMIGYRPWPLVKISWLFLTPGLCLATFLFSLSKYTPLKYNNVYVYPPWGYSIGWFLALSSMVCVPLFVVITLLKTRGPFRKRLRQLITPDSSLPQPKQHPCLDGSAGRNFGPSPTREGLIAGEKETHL

Compound: Cc1ccsc1C(=CCCN(C)[C@H]1CCCC[C@H]1C(=O)O)c1sccc1C [SBV2-114, (1R,2S)-2-((4,4-bis(3-methylthiophen-2-yl)but-3-en-yl)(methyl)amino)cyclohexanecarboxylic acid]
- inhibition at 10 µM (MOR): 42%
- inhibition at 10 µM (M2): -1.9%
- inhibition at 10 µM (DAT): 36.9%
- #Motor impairment/#Tested (mice; CF-1 mice, prior to MES, 50 mg/kg i.p., 15 min): 0/3
- #Motor impairment/#Tested (mice; CF-1 mice, prior to MES, 100 mg/kg i.p., 15 min): 0/4
- #Motor impairment/#Tested (mice; CF-1 mice, prior to MES, 125 mg/kg i.p., 15 min): 0/7
- #Motor impairment/#Tested (mice; CF-1 mice, prior to MES, 150 mg/kg i.p., 15 min): 2/6
- #Motor impairment/#Tested (mice; CF-1 mice, prior to MES, 200 mg/kg i.p., 15 min): 3/4
- #Motor impairment/#Tested (mice; CF-1 mice, prior to s.c.PTZ, 150 mg/kg i.p., 30 min): 0/8
- #Motor impairment/#Tested (mice; Frings mice, 50 mg/kg i.p., 15 min): 0/3
- #Motor impairment/#Tested (mice; Frings mice, 50 mg/kg i.p., 30 min): 0/3
- #Motor impairment/#Tested (mice; Frings mice, 50 mg/kg i.p., 60 min): 0/3
- #Motor impairment/#Tested (mice; Frings mice, 50 mg/kg i.p., 120 min): 0/3
- #Motor impairment/#Tested (mice; Frings mice, 120 mg/kg i.p., 30 min): 0/4
- #Motor impairment/#Tested (mice; Frings mice, 120 mg/kg i.p., 60 min): 0/4
- #Motor impairment/#Tested (mice; Frings mice, 120 mg/kg i.p., 120 min): 0/4
- #Motor impairment/#Tested (mice; Frings mice, 120 mg/kg i.p., 240 min): 0/4
- TD50 at 15 min [1]: 163 mg/kg
- activity at hBGT1 Y453A (hBGT1 Y453A): did not show the expected decrease in activity
- IC50 (mGAT3; ambiguous fit): > 1000 µM
- Fit (mGAT3; preferred model): Ambiguous
- % inhibition (GABAA rat brain): -1.5%
- inhibition at 10 µM (5-HT1A): -7.9%
- #Protected/#Tested (AGS Frings mice; 50 mg/kg i.p., 15 min): 3/4
- #Protected/#Tested (AGS Frings mice; 50 mg/kg i.p., 30 min): 2/4
- #Protected/#Tested (AGS Frings mice; 50 mg/kg i.p., 60 min): 1/4
- #Protected/#Tested (AGS Frings mice; 50 mg/kg i.p., 120 min): 0/4
- #Protected/#Tested (AGS Frings mice; 120 mg/kg i.p., 30 min): 4/4
- #Protected/#Tested (AGS Frings mice; 120 mg/kg i.p., 60 min): 3/4
- #Protected/#Tested (AGS Frings mice; 120 mg/kg i.p., 120 min): 2/4
- #Protected/#Tested (AGS Frings mice; 120 mg/kg i.p., 240 min): 1/4
- brain permeance (AGS Frings mice; concluded from seizure protection after i.p. dosing): brain-permeant
- time-to peak (TPE) (AGS Frings mice; i.p., Frings mice, a faster TPE cannot be excluded): 15 min
